Source: patent US11661400B2, “NADPH oxidase inhibitors, pharmaceutical composition comprising the same, and application thereof” (TAIWANJ PHARMACEUTICALS CO., LTD., priority 2018, dated 2023)

Key:
[1] = biological target: T1, NOX2 (Homo sapiens, UniProt P04839); experiment: NOX2 HL60 cell-based assay (PMA oxidative burst, L012 chemiluminescence); settings: DMSO-differentiated HL-60 cells, PMA-stimulated; for inhibition at 0.1 µM: HL-60, 100 nM; for inhibition at 1 µM: HL-60, 1000 nM
T1 construct: HL-60 cells, rich in NOX2 expression; endogenous in cells; host or cells: DMSO-differentiated HL-60
T1 sequence (P04839 2-570 limits assumed): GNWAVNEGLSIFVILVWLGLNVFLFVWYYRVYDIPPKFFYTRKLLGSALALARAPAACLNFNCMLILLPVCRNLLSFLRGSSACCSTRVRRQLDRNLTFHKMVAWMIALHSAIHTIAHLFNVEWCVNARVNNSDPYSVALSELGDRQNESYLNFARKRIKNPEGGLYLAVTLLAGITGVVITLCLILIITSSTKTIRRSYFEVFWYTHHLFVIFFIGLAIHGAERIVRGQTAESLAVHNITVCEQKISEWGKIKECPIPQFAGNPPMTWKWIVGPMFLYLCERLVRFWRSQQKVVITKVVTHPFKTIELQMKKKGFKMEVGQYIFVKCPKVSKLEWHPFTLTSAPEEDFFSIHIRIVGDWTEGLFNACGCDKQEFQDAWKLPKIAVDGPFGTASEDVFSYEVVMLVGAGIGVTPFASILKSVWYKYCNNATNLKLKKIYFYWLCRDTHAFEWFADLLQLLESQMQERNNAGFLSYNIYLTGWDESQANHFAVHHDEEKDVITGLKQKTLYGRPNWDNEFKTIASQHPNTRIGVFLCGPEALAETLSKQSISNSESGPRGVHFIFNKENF
T1 sequence (P13498 2-195 partner limits assumed): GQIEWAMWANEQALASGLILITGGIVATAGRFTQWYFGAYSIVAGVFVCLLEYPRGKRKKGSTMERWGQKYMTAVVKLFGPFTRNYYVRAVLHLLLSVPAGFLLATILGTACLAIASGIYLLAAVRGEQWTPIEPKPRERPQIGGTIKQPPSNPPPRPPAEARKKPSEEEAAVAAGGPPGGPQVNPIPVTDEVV
Outline: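 DMSO-differentiated HL-60 cells (2.5×10^5/well) with 100 μM L012 preincubated with compound 30-60 min at 37 °C in the dark. Oxidative burst triggered by 10 ng/mL PMA; superoxide chemiluminescence read every 5 min for 60 min.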

[2] = biological target: T2, NOX4 (Homo sapiens, UniProt Q9NPH5); experiment: NOX4 HEK293 overexpression cell-based assay (Amplex Red H2O2); settings: HEK293 cells stably overexpressing NOX4, DMSO = 0, GKT137831 = 100; for inhibition at 0.1 µM: HEK293, 100 nM; for inhibition at 1 µM: HEK293, 1000 nM
T2 construct: expressed in transfected cells
T2 sequence (Q9NPH5 1-578): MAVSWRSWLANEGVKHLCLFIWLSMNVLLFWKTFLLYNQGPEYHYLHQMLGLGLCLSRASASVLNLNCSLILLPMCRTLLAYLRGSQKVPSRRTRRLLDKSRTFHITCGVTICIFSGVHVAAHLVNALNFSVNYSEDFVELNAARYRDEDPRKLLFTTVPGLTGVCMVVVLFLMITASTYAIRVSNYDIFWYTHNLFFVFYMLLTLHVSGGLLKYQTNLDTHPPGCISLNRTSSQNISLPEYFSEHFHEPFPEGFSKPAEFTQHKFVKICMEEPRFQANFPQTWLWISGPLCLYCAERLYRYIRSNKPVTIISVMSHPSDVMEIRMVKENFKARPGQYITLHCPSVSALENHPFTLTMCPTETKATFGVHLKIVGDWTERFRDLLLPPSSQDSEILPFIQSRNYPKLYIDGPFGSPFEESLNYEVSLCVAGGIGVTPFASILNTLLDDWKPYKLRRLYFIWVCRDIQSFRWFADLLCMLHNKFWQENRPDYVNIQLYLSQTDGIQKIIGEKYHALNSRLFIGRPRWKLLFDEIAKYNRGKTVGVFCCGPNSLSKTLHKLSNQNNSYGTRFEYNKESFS
T2 sequence (P13498 2-195 partner limits assumed): T1 sequence (P13498 2-195 partner limits assumed)
Outline: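 HEK293 cells stably overexpressing NOX4 (3×10^4) preincubated 30 min at 37° C with compound in KRPG buffer, then mixed with Amplex Red reagent solution (50 μM Amplex Red, 0.1 units/mL HRP) for 90 min at 37° C in the dark. Supernatant fluorescence read at 530/590 nm; DMSO set to 0 and GKT137831 to 100.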

[3] = biological target: T3, NOX1 (Homo sapiens, UniProt Q9Y5S8); experiment: NOX1 HT29 cell-based assay (luminol/HRP luminescence); settings: HT29 cells, DMSO = 0%, GKT137831 = 100%; for inhibition at 0.1 µM / inhibition at 1 µM: HT-29
T3 construct: endogenous in cells; host or cells: HT29
T3 sequence (Q9Y5S8 1-564): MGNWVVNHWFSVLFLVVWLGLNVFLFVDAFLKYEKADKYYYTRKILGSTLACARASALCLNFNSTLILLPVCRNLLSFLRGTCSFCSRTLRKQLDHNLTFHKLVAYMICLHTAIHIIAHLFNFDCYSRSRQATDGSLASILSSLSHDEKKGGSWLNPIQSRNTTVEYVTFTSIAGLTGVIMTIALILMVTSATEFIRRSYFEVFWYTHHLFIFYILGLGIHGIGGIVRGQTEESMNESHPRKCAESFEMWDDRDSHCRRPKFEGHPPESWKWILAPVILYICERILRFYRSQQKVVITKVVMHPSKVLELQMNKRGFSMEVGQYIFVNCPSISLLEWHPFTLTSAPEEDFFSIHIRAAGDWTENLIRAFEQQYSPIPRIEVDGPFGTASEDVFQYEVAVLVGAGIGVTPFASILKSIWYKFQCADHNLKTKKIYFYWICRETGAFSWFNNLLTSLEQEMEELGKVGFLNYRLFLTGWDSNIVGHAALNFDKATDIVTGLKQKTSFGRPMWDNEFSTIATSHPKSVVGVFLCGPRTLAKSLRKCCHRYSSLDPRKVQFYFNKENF
T3 sequence (P13498 2-195 partner limits assumed): T1 sequence (P13498 2-195 partner limits assumed)
Outline: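 HT29 cells (1-2×10^5 per well) pretreated 30-60 min at 37 °C with compound at 100 nM and 1000 nM final, in duplicate, 0.1% DMSO. ROS read as luminol (100 μM)/HRP (0.4 U) luminescence. Activity normalised to DMSO (0%) and GKT137831 (100%).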

In the case of `COc1cc2[nH]c(-c3ccccc3C(F)(F)F)c(O)c(=O)c2cc1OC` [Compound 41, 3-hydroxy-6,7-dimethoxy-2-(2-(trifluoromethyl)phenyl) quinolin-4(1H)-one], the “% Inhibition NOX2” value ([1]; 100 nM, 0.1 µM) is reported as “C (the percent of inhibition of NOX by the compounds ranges from 2000 to 49%)”, the “% Inhibition NOX2” value ([1]; 1000 nM, 1 µM) is reported as “A (the percent of inhibition of NOX by the compounds is larger than or equals to 80%)” and the “% Inhibition NOX4” value ([2]; 100 nM) is reported as “B (the percent of inhibition of NOX by the compounds ranges from 50% o to 79% o)”. The “% Inhibition NOX4” value ([2]; 1000 nM) was “B (the percent of inhibition of NOX by the compounds ranges from 50% o to 79% o)”, the “% Inhibition NOX1” value ([3]; 100 nM) was “A (the percent of inhibition of NOX by the compounds is larger than or equals to 80%)” and the “% Inhibition NOX1” value ([3]; 1000 nM) was “A (the percent of inhibition of NOX by the compounds is larger than or equals to 80%)”.
With `COc1cc2c(cc1OC)C(=O)NCC(c1ccccc1Cl)=N2` [Compound 35, 2-(2-chlorophenyl)-7,8-dimethoxy-3,4-dihydro-5H-benzo[e][1,4] diazepin-5-one] the inhibition at 0.1 µM [1] was no more than 19%, the inhibition at 1 µM [1] was no more than 19% and the inhibition at 0.1 µM [2] was no more than 19%. For the same molecule, the inhibition at 1 µM [2] was no more than 19%, the inhibition at 0.1 µM ([3]; 100 nM) was no more than 19% and the inhibition at 1 µM ([3]; 1000 nM) was no more than 19%.
`COc1cc2[nH]c(-c3ccccc3Cl)c(O)c(=O)c2cc1OC` [Compound 46] was tested, and the “% Inhibition NOX2” value ([1]; 100 nM) was “D (the percent of inhibition of NOX by the compounds is smaller than or equals to 19% o)”, the “% Inhibition NOX2” value ([1]; 1000 nM) was “A (the percent of inhibition of NOX by the compounds is larger than or equals to 80%)” and the “% Inhibition NOX4” value ([2]; 100 nM) was “B (the percent of inhibition of NOX by the compounds ranges from 50% o to 79% o)”. For the same molecule, the “% Inhibition NOX4” value ([2]; 1000 nM, 1 µM) was “B (the percent of inhibition of NOX by the compounds ranges from 50% o to 79% o)”, the “% Inhibition NOX1” value ([3]; 100 nM) was “A (the percent of inhibition of NOX by the compounds is larger than or equals to 80%)” and the “% Inhibition NOX1” value ([3]; 1000 nM) was “A (the percent of inhibition of NOX by the compounds is larger than or equals to 80%)”.
For `COc1cc2[nH]c(-c3cccs3)c(O)c(=O)c2cc1OC` [Compound 7], the inhibition at 0.1 µM [1] was no more than 19%, the inhibition at 1 µM [1] was 50 to 79% and the inhibition at 0.1 µM [2] was 50 to 79%. For the same molecule, the inhibition at 1 µM [2] was no less than 80%, the inhibition at 0.1 µM ([3]; 100 nM) was no less than 80% and the inhibition at 1 µM ([3]; 1000 nM) was no less than 80%.
In the case of `COc1cc2[nH]c(-c3ccccc3C(F)(F)F)c(O)c(=O)c2cc1OC.Cl` [Compound 42, 3-hydroxy-6,7-dimethoxy-2-(2-(trifluoromethyl)phenyl) quinolin-4(1H)-one hydrochloride], the “% Inhibition NOX2” value ([1]; 1000 nM) is reported as “A (the percent of inhibition of NOX by the compounds is larger than or equals to 80%)”, the inhibition at 0.1 µM [1] is reported as 50 to 79% and the “% Inhibition NOX4” value ([2]; 100 nM) is reported as “B (the percent of inhibition of NOX by the compounds ranges from 50% o to 79% o)”. For the same molecule, the “% Inhibition NOX4” value ([2]; 1000 nM) was “B (the percent of inhibition of NOX by the compounds ranges from 50% o to 79% o)”, the “% Inhibition NOX1” value ([3]; 100 nM) was “A (the percent of inhibition of NOX by the compounds is larger than or equals to 80%)” and the “% Inhibition NOX1” value ([3]; 1000 nM) was “A (the percent of inhibition of NOX by the compounds is larger than or equals to 80%)”.
`COc1ccccc1-c1[nH]c2cccc(-c3cccc(N(C)C)c3)c2c(=O)c1O` [Compound 40] was tested, and the “% Inhibition NOX2” value ([1]; 100 nM) was “C (the percent of inhibition of NOX by the compounds ranges from 2000 to 49%)”, the inhibition at 1 µM [1] was 50 to 79% and the inhibition at 0.1 µM [2] was no more than 19%. For the same molecule, the inhibition at 1 µM [2] was 50 to 79%, the inhibition at 0.1 µM ([3]; 100 nM) was no more than 19% and the inhibition at 1 µM ([3]; 1000 nM) was no less than 80%.
`COc1cc2[nH]c(-c3ccccc3Cl)c(N)c(=O)c2cc1OC` [Compound 36, 3-amino-2-(2-chlorophenyl)-6,7-dimethoxyquinolin-4(1H)-one] was tested, and the “% Inhibition NOX2” value ([1]; 100 nM) was “C (the percent of inhibition of NOX by the compounds ranges from 2000 to 49%)”, the inhibition at 1 µM [1] was no less than 80% and the inhibition at 0.1 µM [2] was no more than 19%. For the same molecule, the inhibition at 1 µM [2] was 50 to 79%, the “% Inhibition NOX1” value ([3]; 100 nM) was “C (the percent of inhibition of NOX by the compounds ranges from 2000 to 49%)” and the inhibition at 1 µM ([3]; 1000 nM) was no less than 80%.
